What all share (format): cell-based
In experiment [1] the test system is HTT mRNA. Nature of the experiment: Splicing RT-qPCR assay (THP), Table 2A. The following applies: Table 2A, THP; for AC50: HTT alternative junction (AJ) mRNA, read-out: HTT AJ (AC50, increase in alternative junction mRNA); for IC50: HTT canonical junction (CJ) mRNA, read-out: HTT CJ (IC50, decrease in canonical junction mRNA). Background: Real-time PCR tracks product formation cycle by cycle.

Experiment [2] relates to MYB mRNA. Kind of experiment: Gene panel canonical junction qPCR assay, decrease in CJ mRNA, Table 3. The following applies: decrease in CJ mRNA levels, canonical junction qPCR, gene panel. An outline of the steps: (§1)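 A673 (DMEM, 10% FBS, 15,000 cells/well) or K562 (IMDM, 10% FBS) cells treated 24 h at 37 °C with 11-point 3-fold dilutions, top 10 uM, DMSO ≤0.25%. Canonical exon-exon junction mRNA measured by RT-qPCR, normalized to GAPDH, GUSB or PPIA and DMSO (ΔΔCt); IC50 from 4-parameter logistic fit.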

Experiment [3] concerns HTT mRNA. The description is as above. Particulars: decrease in CJ mRNA levels, canonical junction qPCR, gene panel. An outline of the steps:
as §1

In experiment [4] the test system is SH-SY5Y (human neuroblastoma) cells. Kind of experiment: Cell viability, Cell Titer Glo 2.0 assay. The following applies: read-out: Viability SHSY5Y.3 GI50. A digest of the protocol:
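Toxicity screen in SH-SY5Y cells. Compounds were serially diluted in DMSO and then in medium, giving 0.1% DMSO final. Viability was read with CellTiter-Glo 2.0 after 72 h at 37 °C, 5% CO2, against medium-only blank wells.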
On the technique in general: In ATP-based viability assays light output follows the ATP content of the culture.

The subject of experiment [5] is MYB mRNA. Nature of the experiment: Splicing RT-qPCR assay (THP), Table 2A. The following applies: Table 2A, THP; for AC50: MYB alternative junction (AJ) mRNA, read-out: MYB AJ (AC50, increase in alternative junction mRNA); for IC50: MYB canonical junction (CJ) mRNA, read-out: MYB CJ (IC50, decrease in canonical junction mRNA).

Data on 18 molecules can be found in patent publication US20260285853A1, “COMPOUNDS AND METHODS FOR MODULATING SPLICING” (REMIX THERAPEUTICS INC., priority 2023, published 2026).

Some results are limits rather than exact numbers.

The term AC50 denotes the concentration at which the activity in the assay is half-maximal. A word on the IC50: it is the concentration at which inhibition is half-maximal. Usually GI50 stands for the concentration giving 50% growth inhibition.

For the molecule `COc1nc2c(C(=O)Nc3cc(CO)c4nn(C)cc4c3)ccc(N3C[C@H](C)N[C@@H](C)C3)c2s1` [Compound 783, 7-((3S,5S)-3,5-dimethylpiperazin-1-yl)-N-(7-(hydroxymethyl)-2-methyl-2H-indazol-5-yl)-2-methoxybenzo[d]thiazole-4-carboxamide], the AC50 was 1000 to 10000 nM in experiment [1] and below 100 nM in experiment [5]. Moreover, the IC50 in experiment [1] was above 10000 nM; in experiment [2] it was below 100 nM; in experiment [3], above 10000 nM; in experiment [5], below 100 nM. Further, the GI50 in experiment [4] lay within 100 to 1000 nM.

Regarding `COc1nc2c(C(=O)Nc3cc(OC)c4nn(C)cc4c3)ccc(N3C[C@H](C)N[C@@H](C)C3)c2s1` [Compound 784, 7-((3S,5S)-3,5-dimethylpiperazin-1-yl)-2-methoxy-N-(7-methoxy-2-methyl-2H-indazol-5-yl)benzo[d]thiazole-4-carboxamide], the AC50 is 100 to 1000 nM in experiment [1] and below 100 nM in experiment [5]. In addition, the IC50 in experiment [1] is 100 to 1000 nM; in experiment [2], below 100 nM; in experiment [3] it was 100 to 1000 nM; in experiment [5], below 100 nM. The GI50 in experiment [4] is below 100 nM.

With `COc1nc2c(C(=O)Nc3cc(Cl)c4nn(C)cc4c3)ccc(N3C[C@H](C)N[C@@H](C)C3)c2s1` [Compound 785], the AC50 in experiment [1] is 100 to 1000 nM; in experiment [5], below 100 nM. The IC50 in experiment [1] is 100 to 1000 nM; in experiment [2] it was below 100 nM; in experiment [3], 100 to 1000 nM; in experiment [5], below 100 nM. The concentration for 50% growth inhibition (GI50) in experiment [4] is below 100 nM.

As to `COc1nc2c(C(=O)Nc3cc4cn(C)nc4c(F)c3OC)ccc(N3C[C@H](C)N[C@@H](C)C3)c2s1` [Compound 786], the AC50 in experiment [1] fell in the range of 1000 to 10000 nM; in experiment [5], 100 to 1000 nM. Further, the IC50 was in the range of 1000 to 10000 nM in experiment [1], 100 to 1000 nM in experiment [2], 1000 to 10000 nM in experiment [3] and 100 to 1000 nM in experiment [5]. For the same molecule, the GI50 in experiment [4] lay within 1000 to 10000 nM.

For the molecule `COc1nc2c(C(=O)Nc3cc4cc(C)nn4cc3OC)ccc(N3C[C@H](C)N[C@@H](C)C3)c2s1` [Compound 787, 7-((3S,5S)-3,5-dimethylpiperazin-1-yl)-2-methoxy-N-(6-methoxy-2-methylpyrazolo[1,5-a]pyridin-5-yl)benzo[d]thiazole-4-carboxamide 2,2,2-trifluoroacetate], the AC50 in experiment [1] and in experiment [5] was above 10000 nM each time. Also, the IC50 is above 10000 nM in experiment [1], 1000 to 10000 nM in experiment [2], above 10000 nM in experiment [3] and 1000 to 10000 nM in experiment [5]. For the same molecule, in experiment [4], the GI50 was in the range of 1000 to 10000 nM.

Turning to `COc1nc2c(C(=O)Nc3cc(F)c4nn(C)cc4c3)ccc(N3C[C@@H](C)NC4(CC4)C3)c2s1` [Compound 788], the results for the AC50 in experiment [1] and in experiment [5] were above 10000 nM and below 100 nM, respectively. For the same molecule, the IC50 in experiment [1] is above 10000 nM; in experiment [2], 100 to 1000 nM; in experiment [3] it was above 10000 nM; in experiment [5], 100 to 1000 nM. Also, the GI50 in experiment [4] fell in the range of 1000 to 10000 nM.

Regarding `COc1nc2c(C(=O)Nc3cc(F)c4nn(C)cc4c3)ccc(N3CCN(C)CC3)c2s1` [Compound 789], the AC50 was 100 to 1000 nM in experiment [1] and below 100 nM in experiment [5]. Further, the IC50 in experiment [1] is 100 to 1000 nM; in experiment [2], below 100 nM; in experiment [3], 100 to 1000 nM; in experiment [5] it was below 100 nM. Moreover, the GI50 in experiment [4] is 100 to 1000 nM.

For the molecule `COc1cc2c(N3C[C@H](C)N[C@@H](C)C3)ccc(C(=O)Nc3cc(F)c4nn(C)cc4c3)c2o1` [Compound 790], the AC50 in experiment [1] is 100 to 1000 nM; in experiment [5] it was below 100 nM. For the same molecule, the IC50 in experiment [1] was 1000 to 10000 nM; in experiment [2], below 100 nM; in experiment [3], 1000 to 10000 nM; in experiment [5] it was below 100 nM. For the same molecule, the GI50 in experiment [4] fell in the range of 100 to 1000 nM.

For the molecule `Cc1cn2cc(NC(=O)c3ccc(N4CCC(NC5CC5)CC4)c4cn(C)nc34)nc2c(CNC(C)C(F)(F)F)n1` (stereo not drawn) [Compound 791, 4-[4-(cyclopropylamino)-1-piperidyl]-2-methyl-N-[6-methyl-8-[[(2,2,2-trifluoro-1-methyl-ethyl)amino]methyl]imidazo[1,2-a]pyrazin-2-yl]indazole-7-carboxamide], the AC50 in experiment [1] and in experiment [5] was above 10000 nM throughout. Also, the IC50 in experiment [1], in experiment [2], in experiment [3] and in experiment [5] was above 10000 nM in each case. Besides, the GI50 in experiment [4] lay within 1000 to 10000 nM.

On to `Cc1cn2cc(NC(=O)c3ccc(N(C)C)c4cn(C)nc34)nc2c(CNS(C)(=O)=O)n1` [Compound 792], for which the AC50 in experiment [1] and in experiment [5] was 1000 to 10000 nM each time. The IC50 in experiment [1], in experiment [2], in experiment [3] and in experiment [5] was 1000 to 10000 nM in each case. For the same molecule, the GI50 in experiment [4] lay in the range of 1000 to 10000 nM.

On to `Cn1cc2cc(NC(=O)c3ccc(N4CCC(NC5CC5)CC4)c4cn(C)nc34)cc(CO)c2n1` [Compound 793], for which the AC50 is above 10000 nM in experiment [1] and 1000 to 10000 nM in experiment [5]. For the same molecule, the IC50 in experiment [1] is above 10000 nM; in experiment [2] it was 1000 to 10000 nM; in experiment [3], above 10000 nM; in experiment [5], 1000 to 10000 nM. Besides, the GI50 in experiment [4] is 1000 to 10000 nM.

Consider `C=CCNC1CCN(c2ccc(C(=O)Nc3cc(CO)c4nn(C)cc4c3)c3nn(C)cc23)CC1` [Compound 794, 4-[4-(allylamino)-1-piperidyl]-N-[7-(hydroxymethyl)-2-methyl-indazol-5-yl]-2-methyl-indazole-7-carboxamide], for which the figures for the AC50 in experiment [1] and in experiment [5] were above 10000 nM and 1000 to 10000 nM, respectively. In addition, the IC50 in experiment [1] is above 10000 nM; in experiment [2], 100 to 1000 nM; in experiment [3], above 10000 nM; in experiment [5] it was 100 to 1000 nM. The GI50 in experiment [4] lay within 1000 to 10000 nM.

On to `Cc1cn2cc(NC(=O)c3ccc(N4CCC(NC5CC5)CC4)c4cn(C)nc34)nc2c(CN2CCCCS2(=O)=O)n1` [Compound 795], for which the AC50 in experiment [1] and in experiment [5] was above 10000 nM each time. Moreover, the IC50 in experiment [1], in experiment [2], in experiment [3] and in experiment [5] was above 10000 nM throughout. Also, in experiment [4], the GI50 is 1000 to 10000 nM.

For the molecule `C[C@H]1CN(c2ccc(C(=O)Nc3cc(F)c4nn(C)cc4c3)c3sc(OCc4ccnn4C)nc23)C[C@H](C)N1` [Compound 796, 4-[(3S,5S)-3,5-dimethylpiperazin-1-yl]-N-(7-fluoro-2-methyl-indazol-5-yl)-2-[(2-methylpyrazol-3-yl)methoxy]-1,3-benzothiazole-7-carboxamide], the AC50 in experiment [1] and in experiment [5] was above 10000 nM throughout. Moreover, the IC50 in experiment [1], in experiment [2], in experiment [3] and in experiment [5] was above 10000 nM in each case. Further, the GI50 in experiment [4] lay in the range of 1000 to 10000 nM.

`C[C@H]1CN(c2ccc(C(=O)Nc3cc(F)c4nn(C)cc4c3)c3sc(OCC4CCNC4)nc23)C[C@H](C)N1` (stereo partly drawn) [Compound 797, 4-((3S,5S)-3,5-dimethylpiperazin-1-yl)-N-(7-fluoro-2-methyl-2H-indazol-5-yl)-2-(pyrrolidin-3-ylmethoxy)benzo[d]thiazole-7-carboxamide bis(2,2,2-trifluoroacetate)]: the AC50 in experiment [1] and in experiment [5] was above 10000 nM each time. The IC50 in experiment [1], in experiment [2], in experiment [3] and in experiment [5] was above 10000 nM in each case. The GI50 in experiment [4] was above 10000 nM.

In the case of `CCNC1CCN(c2ccc(C(=O)Nc3cc(CNS(C)(=O)=O)c4nn(C)cc4c3)c3nn(C)cc23)CC1` [Compound 798, 4-[4-(ethylamino)-1-piperidyl]-N-[7-(methanesulfonamidomethyl)-2-methyl-indazol-5-yl]-2-methyl-indazole-7-carboxamide], the AC50 in experiment [1] and in experiment [5] was 1000 to 10000 nM each time. Besides, the IC50 in experiment [1], in experiment [2], in experiment [3] and in experiment [5] was 1000 to 10000 nM each time. Further, the GI50 in experiment [4] lay in the range of 1000 to 10000 nM.

Consider `COc1nc2c(C(=O)Nc3cn4ccnc4c(F)c3OC)ccc(N3C[C@H](C)N[C@@H](C)C3)c2s1` [Compound 799], for which the results for the AC50 in experiment [1] and in experiment [5] were above 10000 nM and 1000 to 10000 nM, respectively. In addition, the IC50 was above 10000 nM in experiment [1], 1000 to 10000 nM in experiment [2], above 10000 nM in experiment [3] and 1000 to 10000 nM in experiment [5]. In experiment [4], the GI50 was 1000 to 10000 nM.

On to `COc1nc2c(C(=O)Nc3ccc4nn(C)cc4c3)ccc(N3C[C@H](C)N[C@@H](C)C3)c2s1` [Compound 800, 7-[(3S,5S)-3,5-dimethylpiperazin-1-yl]-2-methoxy-N-(2-methylindazol-5-yl)-1,3-benzothiazole-4-carboxamide], for which the results for the AC50 in experiment [1] and in experiment [5] were 100 to 1000 nM and below 100 nM, respectively. For the same molecule, the IC50 in experiment [1] is 100 to 1000 nM; in experiment [2], below 100 nM; in experiment [3] it was 100 to 1000 nM; in experiment [5] it was below 100 nM. The GI50 in experiment [4] was below 100 nM.
